Values after ≈ are worked out from the molar mass of the structure shown.
What was measured:
[1] = target: T1, Prostaglandin D2 receptor 2 (Homo sapiens) (UniProt Q9Y5Y4); test: Antagonist activity at human CRTH2 receptor expressed in […] cells assessed as inhibition of beta arrestin translocation by bioluminescence resonance energy transfer assay relative to control; format: functional, cell-based
T1 sequence (whole entry): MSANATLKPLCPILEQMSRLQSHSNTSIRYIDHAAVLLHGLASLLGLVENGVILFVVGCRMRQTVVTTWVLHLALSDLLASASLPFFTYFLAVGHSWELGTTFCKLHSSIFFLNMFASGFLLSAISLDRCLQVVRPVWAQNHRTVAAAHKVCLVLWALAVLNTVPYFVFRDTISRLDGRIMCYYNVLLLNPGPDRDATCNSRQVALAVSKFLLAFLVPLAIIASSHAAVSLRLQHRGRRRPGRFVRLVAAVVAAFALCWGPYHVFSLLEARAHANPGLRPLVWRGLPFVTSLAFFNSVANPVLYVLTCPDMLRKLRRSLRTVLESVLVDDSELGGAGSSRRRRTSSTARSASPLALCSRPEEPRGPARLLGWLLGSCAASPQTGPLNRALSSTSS

CYP2D6 = CYP2D6 (Homo sapiens, UniProt P10635); test: Inhibition of CYP2D6 at 1 uM; format: ADME
[2] = Clearance in rat; format: ADME, organism-based; details: in vivo
[3] = target: T2, Prostaglandin D2 receptor 2 (Homo sapiens, UniProt Q9Y5Y4); test: Antagonist activity at human CRTH2 receptor expressed in […] cells assessed as inhibition of beta arrestin translocation by bioluminescence resonance energy transfer assay; format: functional, cell-based
T2 sequence (Q9Y5Y4 whole entry): T1 sequence (whole entry)

[4] = Metabolic stability in human liver S9 fraction assessed as compound remaining; format: ADME, subcellular
[5] = target: T2, Prostaglandin D2 receptor 2; test: Displacement of[3H]PGD2 from human CRTH2 receptor expressed in […] cells; format: cell-based
[6] = Octanol-water distribution coefficient, log D at pH 7.4; format: physicochemical
[7] = Metabolic stability in rat liver S9 fraction assessed as compound remaining; format: ADME, subcellular
[8] = Half life in rat; format: ADME, organism-based; details: in vivo
[9] = Aqueous solubility at pH 1; format: physicochemical
CYP3A4 = CYP3A4 (Homo sapiens, UniProt P08684); test: Inhibition of CYP3A4 at 1 uM; format: ADME
[10] = Bioavailability in rat; format: ADME, organism-based; details: in vivo
[11] = target: T2, Prostaglandin D2 receptor 2; test: Displacement of[3H]PGD2 from human CRTH2 receptor expressed in african green monkey COS7 cells; format: cell-based, COS-7

Sequence of CYP2D6 (P10635 whole entry): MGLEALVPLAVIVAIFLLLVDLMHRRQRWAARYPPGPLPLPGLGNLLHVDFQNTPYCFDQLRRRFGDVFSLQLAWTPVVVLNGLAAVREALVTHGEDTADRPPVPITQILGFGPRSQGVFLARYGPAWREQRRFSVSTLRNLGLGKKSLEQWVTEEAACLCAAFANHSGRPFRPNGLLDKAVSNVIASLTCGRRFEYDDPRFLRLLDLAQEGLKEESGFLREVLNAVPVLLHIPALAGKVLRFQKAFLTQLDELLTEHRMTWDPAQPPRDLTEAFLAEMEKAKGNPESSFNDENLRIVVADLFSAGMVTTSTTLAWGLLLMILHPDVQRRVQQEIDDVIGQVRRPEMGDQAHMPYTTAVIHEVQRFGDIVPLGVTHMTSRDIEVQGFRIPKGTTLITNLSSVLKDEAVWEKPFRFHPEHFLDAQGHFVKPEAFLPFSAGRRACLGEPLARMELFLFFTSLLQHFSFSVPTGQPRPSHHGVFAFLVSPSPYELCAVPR
Sequence of CYP3A4 (P08684 whole entry): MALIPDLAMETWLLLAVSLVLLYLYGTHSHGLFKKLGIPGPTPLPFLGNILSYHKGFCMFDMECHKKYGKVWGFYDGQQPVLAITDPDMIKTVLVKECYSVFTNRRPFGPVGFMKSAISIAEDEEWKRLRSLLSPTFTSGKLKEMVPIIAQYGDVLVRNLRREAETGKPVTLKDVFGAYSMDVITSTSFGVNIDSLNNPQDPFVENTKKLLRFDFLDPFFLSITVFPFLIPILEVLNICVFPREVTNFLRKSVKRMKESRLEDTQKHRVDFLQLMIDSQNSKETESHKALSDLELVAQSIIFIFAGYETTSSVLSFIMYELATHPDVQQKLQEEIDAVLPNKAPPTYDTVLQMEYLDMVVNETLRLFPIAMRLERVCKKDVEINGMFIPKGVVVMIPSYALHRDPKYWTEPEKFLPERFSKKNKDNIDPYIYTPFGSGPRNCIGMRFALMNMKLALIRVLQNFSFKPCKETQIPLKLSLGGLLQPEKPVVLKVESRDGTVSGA

Row | SMILES | Efficacy [1] [%] | IC50 [3] [nM] | IC50 [5] [nM] | other results
1 | COc1ccc(C(c2ccccc2)c2nc(-c3ccc(F)cc3)c(CC(=O)O)s2)cc1 (stereo unspecified) | 80 | 31 | 3.6 | inhibition at 1 µM (CYP2D6): 5.8%; clearance [2]: 70 mL/min/kg; Stability [4]: 3.3%; logD [6]: 3; Stability [7]: 0%; half-life [8]: 8.5 h; solubility [9]: 40 µM (≈ 17.3 µg/mL); inhibition at 1 µM (CYP3A4): 4.4%; bioavailability [10]: 81%
2 | Cc1nc(-c2ccc(Cl)cc2)c(CC(=O)O)s1 | 50 | 41000 | – | IC50 [11]: 5500 nM
3 | N#Cc1cc(-c2nc(C(c3ccc(F)cc3)c3ccc(F)cc3)sc2CC(=O)O)ccc1F | 80 | 520 | 57 | –
4 | O=C(O)Cc1sc(C(c2ccccc2)c2ccccc2)nc1-c1ccc(C(F)(F)F)cc1 | 80 | > 100000 | 1100 | –
5 | O=C(O)Cc1sc(C(c2ccccc2)c2ccccc2)nc1-c1ccccc1 | 80 | 370 | 570 | –
6 | Cn1cc(-c2nc(C(c3ccc(F)cc3)c3ccc(F)cc3)sc2CC(=O)O)cn1 | 80 | 3500 | 1300 | –
7 | O=C(O)Cc1sc(C(c2ccc(F)cc2)c2ccc(F)cc2)nc1-c1ccccc1 | 80 | 240 | 16 | –
8 | O=C(O)Cc1sc(Nc2cccc3ccccc23)nc1-c1ccc(Cl)cc1 | 50 | 96 | 150 | –
9 | O=C(O)Cc1sc(C(c2ccccc2)c2ccccc2)nc1-c1ccc(F)cc1 | 80 | 77 | 8.7 | –
10 | Nc1cc(-c2nc(C(c3ccc(F)cc3)c3ccc(F)cc3)sc2CC(=O)O)ccn1 | 80 | 64 | 4.8 | –
11 | O=C(O)Cc1sc(C(c2ccccc2)c2ccc(F)c(F)c2)nc1-c1ccc(F)cc1 (stereo unspecified) | 80 | 64 | 10 | –
12 | O=C(O)Cc1sc(C(c2ccccc2)c2ccc(O)cc2)nc1-c1ccc(F)cc1 (stereo unspecified) | 80 | 30 | 3.4 | –
13 | N#Cc1ccc(-c2nc(C(c3ccc(F)cc3)c3ccc(F)cc3)sc2CC(=O)O)cc1 | 30 | 1500 | 150 | –
14 | O=C(O)Cc1sc(C(c2ccc(F)cc2)c2ccc(F)cc2)nc1-c1cc(F)cc(F)c1 | 80 | 340 | 35 | –
15 | O=C(O)Cc1sc(C(c2ccc(F)cc2)c2ccc(F)cc2)nc1-c1cccc(F)c1 | 80 | 18 | 1.4 | –
16 | O=C(O)Cc1sc(C(c2ccc(F)cc2)c2ccc(F)cc2)nc1-c1ccn[nH]1 | 30 | 3300 | 280 | –
17 | CC(=O)N1CCN(c2cc(-c3nc(C(c4ccc(F)cc4)c4ccc(F)cc4)sc3CC(=O)O)ccn2)CC1 | 80 | > 100000 | 360 | –
18 | O=C(O)Cc1sc(C(c2ccccc2)c2ccccc2)nc1-c1ccc(F)c(F)c1 | 80 | 43 | 4.1 | –
19 | CNc1cc(-c2nc(C(c3ccc(F)cc3)c3ccc(F)cc3)sc2CC(=O)O)ccn1 | 80 | 170 | 25 | –
20 | O=C(O)Cc1sc(C(c2ccccc2)C2CCCCC2)nc1-c1ccc(Cl)cc1 (stereo unspecified) | 50 | > 100000 | 530 | –
21 | O=C(O)Cc1sc(Cc2cccc3ccccc23)nc1-c1ccc(Cl)cc1 | 30 | 570 | 41 | –
22 | O=C(O)Cc1sc(C(c2ccc(F)cc2)c2ccc(F)cc2)nc1-c1cncc(F)c1 | 80 | 300 | 71 | –
23 | Nc1cc(-c2nc(C(c3ccc(F)cc3)c3ccc(F)cc3)sc2CC(=O)O)cc(F)n1 | 30 | 1400 | 220 | –
24 | COc1cc(-c2nc(C(c3ccc(F)cc3)c3ccc(F)cc3)sc2CC(=O)O)ccn1 | 60 | 380 | 29 | –
25 | O=C(O)Cc1sc(C(c2ccc(F)cc2)c2ccc(F)cc2)nc1-c1cn[nH]c1 | 80 | 220 | 16 | –
26 | COc1ccc(C(c2ccccn2)c2nc(-c3ccc(Cl)cc3)c(CC(=O)O)s2)cc1 (stereo unspecified) | 80 | 310 | 61 | –
27 | O=C(O)Cc1sc(C(c2ccc(F)cc2)c2ccc(F)cc2)nc1-c1ccnc(F)c1 | 80 | 4.7 | 0.48 | –
28 | O=C(O)Cc1sc(NC(=O)c2ccccc2)nc1-c1ccc(Cl)cc1 | 50 | 870 | 520 | –
29 | O=C(O)Cc1sc(-c2ccco2)nc1-c1ccc(Cl)cc1 | 50 | 3800 | – | IC50 [11]: 550 nM
